From ChEMBL document CHEMBL1687760, “Secondary integrase resistance mutations found in HIV-1 minority quasispecies in integrase therapy-naive patients have little or no effect on susceptibility to integrase inhibitors” (Antimicrob Agents Chemother, 2010)

Tests used:
Type in all cases: functional
[1] = tested on: Human immunodeficiency virus 1; test: Antiviral activity against Human immunodeficiency virus 1 3B harboring integrase L74M mutant infected in human MT4 cells assessed as inhibition of virus induced cytopathic effect relative to wild type HIV1
[2] = tested on: Human immunodeficiency virus 1; test: Antiviral activity against Human immunodeficiency virus 1 3B harboring integrase E92G mutant infected in human MT4 cells assessed as inhibition of virus induced cytopathic effect relative to wild type HIV1
[3] = tested on: Human immunodeficiency virus 1; test: Antiviral activity against Human immunodeficiency virus 1 3B harboring integrase T97A mutant infected in human MT4 cells assessed as inhibition of virus induced cytopathic effect relative to wild type HIV1
[4] = tested on: Human immunodeficiency virus 1; test: Antiviral activity against Human immunodeficiency virus 1 3B harboring integrase G140S mutant infected in human MT4 cells assessed as inhibition of virus induced cytopathic effect relative to wild type HIV1
[5] = tested on: Human immunodeficiency virus 1; test: Antiviral activity against Human immunodeficiency virus 1 3B harboring integrase K156N mutant infected in human MT4 cells assessed as inhibition of virus induced cytopathic effect relative to wild type HIV1
[6] = tested on: Human immunodeficiency virus 1; test: Antiviral activity against Human immunodeficiency virus 1 3B harboring integrase V165I mutant infected in human MT4 cells assessed as inhibition of virus induced cytopathic effect relative to wild type HIV1
[7] = tested on: Human immunodeficiency virus 1; test: Antiviral activity against Human immunodeficiency virus 1 clone 15_19 harboring integrase E11D, S17T, L45V, M50T, I72V, L74I, T97A, K111T, S119G, T125A infected in human MT4 cells assessed as inhibition of virus induced cytopathic effect relative to wild type HIV1
[8] = tested on: Human immunodeficiency virus 1; test: Antiviral activity against Human immunodeficiency virus 1 clone 18_13 harboring integrase S17N, T124N, T125A, G140S, M154I, S195C infected in human MT4 cells assessed as inhibition of virus induced cytopathic effect relative to wild type HIV1
[9] = tested on: Human immunodeficiency virus 1; test: Antiviral activity against Human immunodeficiency virus 1 clone 50_2 harboring integrase R20K, A23V, E92G, T124N, I141V, G193E, V201I, T206S, I220V, D279G infected in human MT4 cells assessed as inhibition of virus induced cytopathic effect relative to wild type HIV1
[10] = tested on: Human immunodeficiency virus 1; test: Antiviral activity against Human immunodeficiency virus 1 clone 1 harboring integrase E11D, S17T, L45V, M50I, M50T, I72V, L74I, K111T, S119G, T125A relative to wild type HIV1
[11] = tested on: Human immunodeficiency virus 1; test: Antiviral activity against Human immunodeficiency virus 1 clone 5 harboring integrase E11D, S17T, S39G, L45V, M50I, I72V, L74I, K111T, S119G, T125A relative to wild type HIV1
[12] = tested on: Human immunodeficiency virus 1; test: Antiviral activity against Human immunodeficiency virus 1 clone 12 harboring integrase E11D, S17T, L45V, M50T, I72V, L74I, K111T, S119G, T125A relative to wild type HIV1
[13] = tested on: Human immunodeficiency virus 1; test: Antiviral activity against Human immunodeficiency virus 1 clone 16 harboring integrase E11D, S17T, L45V, M50T, I72V, L74I, K111T, T125A relative to wild type HIV1
[14] = tested on: Human immunodeficiency virus 1; test: Antiviral activity against Human immunodeficiency virus 1 clone 19 harboring integrase E11D, S17T, L45V, M50T, I72V, L74I, T97A, K111T, S119G, T125A relative to wild type HIV1
[15] = tested on: Human immunodeficiency virus 1; test: Antiviral activity against Human immunodeficiency virus 1 clone 20 harboring integrase E11D, S17T, L45V, M50T, I72V, L74I, K111T, T125A, I217V relative to wild type HIV1
[16] = tested on: Human immunodeficiency virus 1; test: Antiviral activity against Human immunodeficiency virus 1 clone 2 harboring integrase S17N, I84I, T124N, T125A, M154I, E157K, S195C mutant gene relative to wild type HIV1
[17] = tested on: Human immunodeficiency virus 1; test: Antiviral activity against Human immunodeficiency virus 1 clone 3 harboring integrase S17N, I84I, T124N, T125A, M154I, S195C mutant gene relative to wild type HIV1
[18] = tested on: Human immunodeficiency virus 1; test: Antiviral activity against Human immunodeficiency virus 1 clone 9 harboring integrase S17N, I84I, T124N, T125A, M154I, A175T, S195C mutant gene relative to wild type HIV1
[19] = tested on: Human immunodeficiency virus 1; test: Antiviral activity against Human immunodeficiency virus 1 clone 13 harboring integrase S17N, T124N, T125A, G140S, M154I, S195C mutant gene relative to wild type HIV1
[20] = tested on: Human immunodeficiency virus 1; test: Antiviral activity against Human immunodeficiency virus 1 clone 14 harboring integrase S17N, T124N, T125A, M154I, S195C, V201I mutant gene relative to wild type HIV1
[21] = tested on: Human immunodeficiency virus 1; test: Antiviral activity against Human immunodeficiency virus 1 clone 16 harboring integrase S17N, T124N, T125A, M154I, S195C, V201I mutant gene relative to wild type HIV1
[22] = tested on: Human immunodeficiency virus 1; test: Antiviral activity against Human immunodeficiency virus 1 clone 18 harboring integrase S17N, I84I, T124N, T125A, M154I, S195C, V201I, S230G mutant gene relative to wild type HIV1
[23] = tested on: Human immunodeficiency virus 1; test: Antiviral activity against Human immunodeficiency virus 1 clone 2 harboring integrase R20K, A23V, E92G, T124N, I141V, G193E, V201I, T206S, I220V, D279G mutant gene relative to wild type HIV1
[24] = tested on: Human immunodeficiency virus 1; test: Antiviral activity against Human immunodeficiency virus 1 clone 3 harboring integrase R20K, A23V, T124N, I141V, G193E, V201I, T206S, I220V, M275Vmutant gene relative to wild type HIV1
[25] = tested on: Human immunodeficiency virus 1; test: Antiviral activity against Human immunodeficiency virus 1 3B harboring integrase E92Q mutant infected in human MT4 cells assessed as inhibition of virus induced cytopathic effect relative to wild type HIV1
[26] = tested on: Human immunodeficiency virus 1; test: Antiviral activity against Human immunodeficiency virus 1 3B harboring integrase I72V mutant infected in human MT4 cells assessed as inhibition of virus induced cytopathic effect relative to wild type HIV1
[27] = tested on: Human immunodeficiency virus 1; test: Antiviral activity against Human immunodeficiency virus 1 clone 16 harboring integrase R20K, A23V, M50I, T124N, G193E, V201I, T206S, I220V, D279G mutant gene relative to wild type HIV1
[28] = tested on: Human immunodeficiency virus 1; test: Antiviral activity against Human immunodeficiency virus 1 clone 17 harboring integrase R20K, A23V, T124N,A129T, I141V, I62T, G193E, V201I, T206S, I220V, D279G mutant gene relative to wild type HIV1
[29] = tested on: Human immunodeficiency virus 1; test: Antiviral activity against Human immunodeficiency virus 1 clone 15_7 harboring integrase T97A mutant and T97A, Y143R site-directed mutation relative to wild type HIV1
[30] = tested on: Human immunodeficiency virus 1; test: Antiviral activity against Human immunodeficiency virus 1 clone 15_19 harboring integrase T97A mutant and T97A, Y143R site-directed mutation relative to wild type HIV1
[31] = tested on: Human immunodeficiency virus 1; test: Antiviral activity against Human immunodeficiency virus 1 clone 15_12 harboring integrase Y143R site-directed mutation relative to wild type HIV1
[32] = tested on: Human immunodeficiency virus 1; test: Antiviral activity against Human immunodeficiency virus 1 HXB2 assessed as inhibition of virus induced cytopathic effect relative to wild type HIV1

## COc1cc2c(cc1Cc1cccc(Cl)c1F)c(=O)c(C(=O)O)cn2[C@H](CO)C(C)C [ELVITEGRAVIR]
[1]
  fold change (FC): 0.7
[2]
  fold change (FC): 13
[3]
  fold change (FC): 2.6
[4]
  fold change (FC): 5.6
[5]
  fold change (FC): 0.7
[6]
  fold change (FC): 0.8
[7]
  fold change (FC): 2.5
[8]
  fold change (FC): 5.6
[9]
  fold change (FC): 13
[10]
  fold change (FC): 1.4
[11]
  fold change (FC): 0.3
[12]
  fold change (FC): 1
[13]
  fold change (FC): 0.5
[14]
  fold change (FC): 2.5
[15]
  fold change (FC): 1
[16]
  fold change (FC): 1.1
[17]
  fold change (FC): 0.6
[18]
  fold change (FC): 1.3
[19]
  fold change (FC): 5.6
[20]
  fold change (FC): 1.3
[21]
  fold change (FC): 1
[22]
  fold change (FC): 0.8
[23]
  fold change (FC): 13
[24]
  fold change (FC): 0.7
[25]
  fold change (FC): 20.8
[26]
  fold change (FC): 0.8
[27]
  fold change (FC): 0.7
[28]
  fold change (FC): 0.3
[29]
  fold change (FC): 14.6
[30]
  fold change (FC): 9.4
[31]
  fold change (FC): 4.2
[32]
  fold change (FC): 1.2

## Cc1nnc(C(=O)NC(C)(C)c2nc(C(=O)NCc3ccc(F)cc3)c(O)c(=O)n2C)o1 [RALTEGRAVIR]
[1]
  fold change (FC): 0.9
[2]
  fold change (FC): 1.8
[3]
  fold change (FC): 1.6
[4]
  fold change (FC): 2.4
[5]
  fold change (FC): 0.4
[6]
  fold change (FC): 0.7
[7]
  fold change (FC): 1.7
[8]
  fold change (FC): 2.4
[9]
  fold change (FC): 1.8
[10]
  fold change (FC): 1.7
[11]
  fold change (FC): 0.7
[12]
  fold change (FC): 1.1
[13]
  fold change (FC): 1.2
[14]
  fold change (FC): 1.7
[15]
  fold change (FC): 1.5
[16]
  fold change (FC): 1.1
[17]
  fold change (FC): 0.8
[18]
  fold change (FC): 1.1
[19]
  fold change (FC): 2.4
[20]
  fold change (FC): 1.8
[21]
  fold change (FC): 1.3
[22]
  fold change (FC): 1.3
[23]
  fold change (FC): 1.8
[24]
  fold change (FC): 0.5
[25]
  fold change (FC): 3.8
[26]
  fold change (FC): 0.9
[27]
  fold change (FC): 0.8
[28]
  fold change (FC): 0.3
[29]
  fold change (FC): 91.6
[30]
  fold change (FC): 88.2
[31]
  fold change (FC): 13.1
[32]
  fold change (FC): 1
